Reference: US20210115104A1, “AMYLIN ANALOGUES” (Zealand Pharma A/S, priority 2015, published 2021)
*1 amine or outer side, *2 acyl side, *3 side chain or, on linkers, in order; H or OH if unused. Where a SMILES comes first, the peptide text is derived from it. Bridges are numbered along the chain shown (N, C = ends). [ ]: non-standard residue; d: D form. The star is where a group is joined. C20 diacid = O=C(O)CCCCCCCCCCCCCCCCCCC(=O)*; γGlu = O=C(O)[C@H](CCC(=O)[*:2])N[*:1]; Hyp = O=C(O)[C@@H]1C[C@@H](O)CN1; NMeI = CC[C@H](C)[C@H](NC)C(=O)O; Sar = CNCC(=O)O

Legend:
[1] = target: T1, human calcitonin receptor (hCTR2) (Homo sapiens, UniProt P30988); experiment: hCTR2 cAMP assay (AlphaScreen) in COS7 cells; assay type: cell-based; conditions: cAMP induction, COS7 cells expressing hCTR2; Table 1; read-out: hCTR2 EC50
T1 construct: expressed in transfected cells
T1 sequence (P30988 25-474): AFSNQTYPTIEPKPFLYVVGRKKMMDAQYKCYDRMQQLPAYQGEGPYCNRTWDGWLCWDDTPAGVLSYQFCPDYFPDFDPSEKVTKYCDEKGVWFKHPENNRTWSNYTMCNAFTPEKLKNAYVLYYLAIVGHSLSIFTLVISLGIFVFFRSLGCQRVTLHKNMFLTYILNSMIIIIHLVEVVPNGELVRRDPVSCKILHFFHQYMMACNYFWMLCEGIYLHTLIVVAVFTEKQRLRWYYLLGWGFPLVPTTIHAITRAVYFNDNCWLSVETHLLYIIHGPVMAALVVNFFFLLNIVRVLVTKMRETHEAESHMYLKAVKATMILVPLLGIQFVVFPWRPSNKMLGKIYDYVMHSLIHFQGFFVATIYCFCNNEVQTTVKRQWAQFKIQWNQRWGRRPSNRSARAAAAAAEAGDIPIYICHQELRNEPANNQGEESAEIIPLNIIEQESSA
Outline: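 cAMP induction, read by AlphaScreen after lysis, gives EC50 values via 4PL curve fitting. Peptides were applied at rising concentrations for 15 min at 37 °C, with IBMX and 0.1% casein in HEPES-buffered Tyrode pH 7.4, to COS7 cells (no endogenous RAMPs) stably expressing human CTR2.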

[2] = Pharmacokinetic (PK) profiling in rats; assay type: in vivo, rat; parameters: CI/F (apparent clearance values): unit not given here; conditions: Sprague Dawley male rats, single sc 30 nmol/kg
Outline: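 Male Sprague Dawley rats received a single sc dose of 30 nmol/kg in mannitol-containing histidine buffer (pH 7.0), with tail-vein sampling before dosing and at 24–168 hours. Plasma was ethanol-precipitated and assayed by LC-MS/MS. Non-compartmental analysis of mean concentrations gave t1/2 as ln(2)/λz and CL/F as dose/AUCinf.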

[3] = Assessment of chemical stability (RP-HPLC normalized purity); assay type: physicochemical; conditions: for Normalized purity after 7 days, 40° C., pH 4: pH 4, 0.2 mg/ml; for Normalized purity after 7 days, 40° C., pH 4 / Normalized purity after 7 days, 40° C., pH 6 / Normalized purity after 7 days, 40° C., pH 7.5 / Normalized purity after 7 days, 40° C., pH 9: Table 1; for Normalized purity after 7 days, 40° C., pH 6: pH 6, 0.2 mg/ml; for Normalized purity after 7 days, 40° C., pH 7.5: pH 7.5, 0.2 mg/ml; for Normalized purity after 7 days, 40° C., pH 9: pH 9, 0.2 mg/ml
Outline: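 Purity after 7 days at 40° C is expressed relative to T=0 (set to 100) for each pH. Samples at 0.2 mg/ml, pH 4, 6, 7.5 or 9, analyzed by RP-HPLC with UV 220 nm on C8 (ammonium formate) or C18 (TFA) gradients.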

Row | EC50 [1] [nM] | CI/F (apparent clearance values) [2] | half-life ([2]; rat, plasma, read-out: Plasma terminal elimination half-life t1/2 (converted)) [h] | Normalized purity after 7 days, 40° C., pH 4 [3] | Normalized purity pH 4 (Table 5) ([3]; pH 4, repeat of Example 6 for pairs with/without Asn-Asn at 21-22) | Normalized purity after 7 days, 40° C., pH 6 [3] | Normalized purity pH 6 (Table 5) ([3]; pH 6, repeat of Example 6 for pairs with/without Asn-Asn at 21-22) | Normalized purity after 7 days, 40° C., pH 7.5 [3] | Normalized purity pH 7.5 (Table 5) ([3]; pH 7.5, repeat of Example 6 for pairs with/without Asn-Asn at 21-22) | Normalized purity after 7 days, 40° C., pH 9 [3] | Normalized purity pH 9 (Table 5) ([3]; pH 9, repeat of Example 6 for pairs with/without Asn-Asn at 21-22) | Compound
1 | 0.08 | 0.0078 | 17.9 | A (A = >90%) | A (A = >90%) | A (A = >90%) | A (A = >90%) | A (A = >90%) | A (A = >90%) | A (A = >90%) | B (B = 70-90%) | CC[C@H](C)[C@@H](C(=O)N[C@@H](CC(C)C)C(=O)N[C@@H](CO)C(=O)N[C@@H](CO)C(=O)N[C@H](C(=O)N[C@@H](CCC(=O)O)C(=O)N[C@H](C(=O)NCC(=O)N[C@@H](CO)C(=O)N[C@@H](CC(N)=O)C(=O)N[C@H](C(=O)N1C[C@H](O)C[C@H]1C(N)=O)[C@@H](C)O)C(C)C)[C@@H](C)O)N(C)C(=O)[C@H](C)NC(=O)CN(C)C(=O)[C@H](Cc1ccccc1)NC(=O)[C@H](CO)NC(=O)[C@H](CO)NC(=O)[C@H](CCCNC(=N)N)NC(=O)[C@H](CCC(N)=O)NC(=O)[C@H](CC(C)C)NC(=O)[C@H](Cc1ccccc1)NC(=O)[C@H](Cc1c[nH]cn1)NC(=O)[C@H](C)NC(=O)[C@H](CC(C)C)NC(=O)[C@H](CCCNC(=N)N)NC(=O)[C@H](CCC(=O)O)NC(=O)[C@@H](NC(=O)[C@H](C)NC(=O)[C@@H]1CSSC[C@H](NC(=O)[C@H](CCCNC(=N)N)NC(=O)CC[C@H](NC(=O)CCCCCCCCCCCCCCCCCCC(=O)O)C(=O)O)C(=O)N[C@@H](CCC(N)=O)C(=O)N[C@@H]([C@@H](C)O)C(=O)N[C@@H](C)C(=O)N[C@@H]([C@@H](C)O)C(=O)N1)[C@@H](C)O [Compound 57, [19CD]-isoGlu-R-C( )-QTAT-C( )-ATERLAHFLQRSSF-Gly(Me)-A-Ile(Me)-LSSTEVGSNT-Hyp-NH2] ({C20 diacid-γGlu}-RCQTATCATERLAHFLQRSSF[Sar]A[NMeI]LSSTEVGSNT[Hyp]-NH2; disulfide 2-7)
2 | 0.11 | 0.0146 |  | A (A = >90%) |  | A (A = >90%) |  | A (A = >90%) |  | B (B = 70-90%) |  | CC[C@H](C)[C@@H](C(=O)N[C@@H](CC(C)C)C(=O)N[C@@H](CO)C(=O)N[C@@H](CO)C(=O)N[C@H](C(=O)N[C@@H](CCC(=O)O)C(=O)N[C@H](C(=O)NCC(=O)N[C@@H](CO)C(=O)NCC(=O)N[C@H](C(=O)N1C[C@H](O)C[C@H]1C(N)=O)[C@@H](C)O)C(C)C)[C@@H](C)O)N(C)C(=O)[C@H](C)NC(=O)CN(C)C(=O)[C@H](Cc1ccccc1)NC(=O)[C@H](CO)NC(=O)[C@H](CO)NC(=O)[C@H](CCCNC(=N)N)NC(=O)[C@H](CCC(N)=O)NC(=O)[C@H](CC(C)C)NC(=O)[C@H](Cc1ccccc1)NC(=O)[C@H](Cc1c[nH]cn1)NC(=O)[C@H](C)NC(=O)[C@H](CC(C)C)NC(=O)[C@H](CCCNC(=N)N)NC(=O)[C@H](CCC(N)=O)NC(=O)[C@@H](NC(=O)[C@H](C)NC(=O)[C@@H]1CSSC[C@H](NC(=O)[C@H](CCCNC(=N)N)NC(=O)CC[C@H](NC(=O)CCCCCCCCCCCCCCCCCCC(=O)O)C(=O)O)C(=O)N[C@@H](CC(N)=O)C(=O)N[C@@H]([C@@H](C)O)C(=O)N[C@@H](C)C(=O)N[C@@H]([C@@H](C)O)C(=O)N1)[C@@H](C)O [Compound 71, [19CD]-isoGlu-R-C( )-NTAT-C( )-ATQRLAHFLQRSSF-Gly(Me)-A-Ile(Me)-LSSTEVGSGT-Hyp-NH2] ({C20 diacid-γGlu}-RCNTATCATQRLAHFLQRSSF[Sar]A[NMeI]LSSTEVGSGT[Hyp]-NH2; disulfide 2-7)
